These results are taken from ChEMBL document CHEMBL4411302, “Aryl H-phosphonates. 19. New anti-HIV pronucleotide phosphoramidate diesters containing amino- and hydroxypyridine auxiliaries” (Eur J Med Chem, 2019).

Data set [1] relates to Human immunodeficiency virus 1. Kind of data set: Antiviral activity against HIV1 infected in human CEM-T4 cells assessed as protection against virus-induced cytopathogenicity by measuring reduction in p24 level preincubated with cells for 24 hrs followed by viral infection and measured after 8 days by MTT assay. It is filed as functional, organism-based.
Data set [2] is described as follows: Cytotoxicity against human CEM-T4 cells assessed as reduction in cell viability after 7 days by MTT assay. It is filed as cell-based. The following applies: for CC50 at 168 h: CEM-T4 cells; for CC50: 168 h.
A short description of data set [3]: Selectivity index, ratio of CC50 for human CEM-T4 cells to EC50 for HIV1 infected in human CEM-T4 cells. It is filed as toxicity, cell-based. Conditions: read-out: Ratio CC50/EC50.
The nature of data set [4]: Half life of the compound in RPMI media at 37 degC. It is filed as physicochemical. The following applies: for half-life: RPMI media.
A short description of data set [5]: Prodrug activation in RPMI media assessed as hydrolysis by measuring P-O bond cleavage.
A short description of data set [6]: Stability of the compound in RPMI media up to 7 days. The following applies: 168 h. It is filed as physicochemical.
The nature of data set [7]: Prodrug activation in RPMI media assessed as hydrolysis by measuring P-O bond cleavage measured after 24 days. The following applies: 576 h.
Where [8] appears, read: Human immunodeficiency virus 1, CEM-T4, read-out: EC50.

Where only a bound is given, the exact number is not on record here.

Regarding `O=c1ccn([C@H]2CC[C@@H](COP(=O)(Nc3ccccc3)Oc3cccnc3)O2)c(=O)[nH]1` (stereo partly specified), the EC50 in data set [1] (setting [8]) was determined as 7.3 µM. Further, the CC50 at 168 h in data set [2] worked out at 225 µM. Besides, the selectivity ratio in data set [3] was found to be 31. In data set [4], this molecule had a half-life of 120 h.
For `Cc1cn([C@H]2C[C@H](N=[N+]=[N-])[C@@H](COP(=O)(Nc3cccnc3)Oc3ccccc3)O2)c(=O)[nH]c1=O` (stereo partly specified) the same measures were 0.035 µM, > 400 µM, > 11400 and 168 h.
For `O=c1ccn([C@H]2CC[C@@H](COP(=O)(Nc3cccnc3)Oc3cccnc3)O2)c(=O)[nH]1` (stereo partly specified) the same measures were 0.55 µM, > 200 µM, > 364 and 20 h.
In the case of `Cc1cn([C@H]2C[C@H](N=[N+]=[N-])[C@@H](COP(=O)(Nc3ccncc3)Oc3ccccn3)O2)c(=O)[nH]c1=O` (stereo partly specified), the EC50 in data set [1] (setting [8]) amounted to 0.16 µM. The CC50 at 168 h in data set [2] is > 50 µM. In addition, the selectivity ratio in data set [3] is > 250. In data set [4], this molecule showed a half-life of 120 h.
For `Cc1cn([C@H]2C[C@H](N=[N+]=[N-])[C@@H](COP(=O)(Nc3ccccc3)Oc3cccnc3)O2)c(=O)[nH]c1=O` (stereo partly specified) the same measures were < 0.012 µM, 360 µM, > 30000 and 82 h.
Take `Cc1cn([C@H]2C[C@H](N=[N+]=[N-])[C@@H](COP(=O)(Nc3cccnc3)Oc3ccncc3)O2)c(=O)[nH]c1=O` (stereo partly specified): in data set [1], the EC50 result was “Nd(Unstable)”. Also, the CC50 result in data set [2] was “Nd(Unstable)”. Also, the Drug metabolism result in data set [5] is listed as “Nd(Unstable)”. In addition, the t1/2 entry in data set [4] is “Nd(Unstable)”.
Regarding `Cc1cn([C@H]2C[C@H](N=[N+]=[N-])[C@@H](COP(=O)(Nc3ccccc3)Oc3ccncc3)O2)c(=O)[nH]c1=O` (stereo partly specified), the EC50 entry in data set [1] is “Nd(Unstable)”. The CC50 result in data set [2] is reported as “Nd(Unstable)”. In addition, in data set [5], the Drug metabolism result was “Nd(Unstable)”. Further, in data set [4], the t1/2 entry is recorded as “Nd(Unstable)”.
Turning to `Cc1cn([C@H]2C[C@H](N=[N+]=[N-])[C@@H](COP(=O)(Nc3cccnc3)Oc3cccnc3)O2)c(=O)[nH]c1=O` (stereo partly specified), the EC50 in data set [1] (setting [8]) was < 0.02 µM. The CC50 at 168 h in data set [2] is > 200 µM. Also, the selectivity ratio in data set [3] is > 10000. The same molecule gave a half-life in data set [4] of 27 h.
The matching figures for `Cc1cn([C@H]2C[C@H](N=[N+]=[N-])[C@@H](COP(=O)(Nc3cccnc3)Oc3ccccn3)O2)c(=O)[nH]c1=O` (stereo partly specified): 0.06 µM, > 200 µM, > 3300 and 33 h.
Take `Cc1cn([C@H]2C[C@H](N=[N+]=[N-])[C@@H](COP(=O)(Nc3ccccc3)Oc3ccccc3)O2)c(=O)[nH]c1=O` (stereo partly specified): the EC50 in data set [1] (setting [8]) is 0.075 µM. In data set [2], the CC50 at 168 h was > 66.8 µM. Moreover, the selectivity ratio in data set [3] was > 890. Also, in data set [6], the Stability entry is “Stable”. In addition, the Drug metabolism result in data set [7] was “Metabolite_Detected”.
With `Cc1cn([C@H]2C[C@H](N=[N+]=[N-])[C@@H](COP(=O)(Nc3ccncc3)Oc3ccccc3)O2)c(=O)[nH]c1=O` (stereo partly specified), the EC50 in data set [1] (setting [8]) was determined as 0.05 µM. In addition, in data set [2], the CC50 at 168 h is > 400 µM. Further, the selectivity ratio in data set [3] is > 8000. The molecule further had a half-life in data set [4] of 192 h.
The matching figures for `Cc1cn([C@H]2C[C@H](N=[N+]=[N-])[C@@H](COP(=O)(Nc3ccccc3)Oc3ccccn3)O2)c(=O)[nH]c1=O` (stereo partly specified): < 0.012 µM, > 22 µM, > 1830 and 45 h.
For `Cc1cn([C@H]2C[C@H](N=[N+]=[N-])[C@@H](COP(=O)(Nc3ccncc3)Oc3cccnc3)O2)c(=O)[nH]c1=O` (stereo partly specified) the same measures were 0.2 µM, > 50 µM, > 250 and 105 h.
Regarding `Cc1cn([C@H]2C[C@H](N=[N+]=[N-])[C@@H](COP(=O)(Nc3ccncc3)Oc3ccncc3)O2)c(=O)[nH]c1=O` (stereo partly specified), in data set [1], the EC50 entry was “Nd(Unstable)”. In data set [2], the CC50 result was “Nd(Unstable)”. Moreover, in data set [5], the Drug metabolism result was “Nd(Unstable)”. The t1/2 entry in data set [4] was “Nd(Unstable)”.
For `O=c1ccn([C@H]2CC[C@@H](COP(=O)(Nc3cccnc3)Oc3ccccc3)O2)c(=O)[nH]1` (stereo partly specified), in data set [1] (setting [8]), the EC50 was > 30 µM. In data set [2], the CC50 at 168 h came out at 225 µM. Further, in data set [3], the selectivity ratio was < 7.5. The molecule also gave a half-life in data set [4] of 168 h.
